We go through one compound from ChEMBL document CHEMBL5120862, “Novel non-covalent LSD1 inhibitors endowed with anticancer effects in leukemia and solid tumor cellular models” (Eur J Med Chem, 2022).

Each structure is given as a SMILES string. Active and inactive are the calls of the source. No cut-off for these calls is given here.

The target of series [1] is Histone-lysine N-methyltransferase, H3 lysine-79 specific (Homo sapiens) (UniProt Q8TEK3). Nature of the series: Inhibition of […] (unknown origin) using [3H]SAM and HeLa oligo nucleosomes as substrates at 100 uM incubated for 1 hr relative to control.
Histone-lysine N-methyltransferase, H3 lysine-79 specific (Homo sapiens), sequence (Q8TEK3 whole entry, looked up): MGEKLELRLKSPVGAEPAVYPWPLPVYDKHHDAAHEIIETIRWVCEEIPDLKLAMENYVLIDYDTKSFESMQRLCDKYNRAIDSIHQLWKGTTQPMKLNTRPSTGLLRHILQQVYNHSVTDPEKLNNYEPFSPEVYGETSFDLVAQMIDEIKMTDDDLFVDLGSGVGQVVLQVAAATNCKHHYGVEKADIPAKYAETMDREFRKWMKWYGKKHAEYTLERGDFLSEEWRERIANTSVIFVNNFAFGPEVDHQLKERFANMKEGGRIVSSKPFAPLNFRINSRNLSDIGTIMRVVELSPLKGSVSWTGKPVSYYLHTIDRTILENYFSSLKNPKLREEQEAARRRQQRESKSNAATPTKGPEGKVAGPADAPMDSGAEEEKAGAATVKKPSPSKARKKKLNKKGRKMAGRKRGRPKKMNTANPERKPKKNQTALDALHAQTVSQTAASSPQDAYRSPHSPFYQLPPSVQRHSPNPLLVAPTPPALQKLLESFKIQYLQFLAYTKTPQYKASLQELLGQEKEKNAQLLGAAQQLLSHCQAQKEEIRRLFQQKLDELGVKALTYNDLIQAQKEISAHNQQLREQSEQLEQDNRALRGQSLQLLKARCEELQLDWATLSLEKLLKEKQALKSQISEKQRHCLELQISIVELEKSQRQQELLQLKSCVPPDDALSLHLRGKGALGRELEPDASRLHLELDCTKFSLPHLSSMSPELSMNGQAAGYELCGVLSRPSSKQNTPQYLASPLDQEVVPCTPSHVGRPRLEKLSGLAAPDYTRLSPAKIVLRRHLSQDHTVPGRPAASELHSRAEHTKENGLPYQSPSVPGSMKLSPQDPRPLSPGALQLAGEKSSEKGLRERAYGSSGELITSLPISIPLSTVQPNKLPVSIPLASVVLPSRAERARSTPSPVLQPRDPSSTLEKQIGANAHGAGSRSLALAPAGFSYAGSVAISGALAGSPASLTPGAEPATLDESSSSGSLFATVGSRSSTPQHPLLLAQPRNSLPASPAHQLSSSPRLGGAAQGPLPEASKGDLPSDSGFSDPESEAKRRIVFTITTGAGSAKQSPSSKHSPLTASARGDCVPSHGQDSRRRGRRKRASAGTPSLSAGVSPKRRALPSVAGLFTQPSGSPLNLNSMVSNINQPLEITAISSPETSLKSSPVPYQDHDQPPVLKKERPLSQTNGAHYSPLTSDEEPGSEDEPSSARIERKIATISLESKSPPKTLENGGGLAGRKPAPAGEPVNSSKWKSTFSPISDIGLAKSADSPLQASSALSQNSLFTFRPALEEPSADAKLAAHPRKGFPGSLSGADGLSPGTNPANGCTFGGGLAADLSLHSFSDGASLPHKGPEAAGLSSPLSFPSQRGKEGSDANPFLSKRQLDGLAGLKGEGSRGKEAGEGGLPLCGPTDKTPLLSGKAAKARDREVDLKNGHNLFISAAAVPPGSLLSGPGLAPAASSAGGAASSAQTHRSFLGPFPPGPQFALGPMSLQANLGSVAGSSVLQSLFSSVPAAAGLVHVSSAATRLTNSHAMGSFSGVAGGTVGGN
In series [2] the target is Histone-lysine N-methyltransferase EZH2 (Homo sapiens) (UniProt Q15910). Nature of the series: Inhibition of EZH2 (unknown origin) using [3H]SAM and chicken core histone as substrates at 100 uM incubated for 1 hr relative to control.
Histone-lysine N-methyltransferase EZH2 (Homo sapiens), sequence (Q15910 whole entry, looked up): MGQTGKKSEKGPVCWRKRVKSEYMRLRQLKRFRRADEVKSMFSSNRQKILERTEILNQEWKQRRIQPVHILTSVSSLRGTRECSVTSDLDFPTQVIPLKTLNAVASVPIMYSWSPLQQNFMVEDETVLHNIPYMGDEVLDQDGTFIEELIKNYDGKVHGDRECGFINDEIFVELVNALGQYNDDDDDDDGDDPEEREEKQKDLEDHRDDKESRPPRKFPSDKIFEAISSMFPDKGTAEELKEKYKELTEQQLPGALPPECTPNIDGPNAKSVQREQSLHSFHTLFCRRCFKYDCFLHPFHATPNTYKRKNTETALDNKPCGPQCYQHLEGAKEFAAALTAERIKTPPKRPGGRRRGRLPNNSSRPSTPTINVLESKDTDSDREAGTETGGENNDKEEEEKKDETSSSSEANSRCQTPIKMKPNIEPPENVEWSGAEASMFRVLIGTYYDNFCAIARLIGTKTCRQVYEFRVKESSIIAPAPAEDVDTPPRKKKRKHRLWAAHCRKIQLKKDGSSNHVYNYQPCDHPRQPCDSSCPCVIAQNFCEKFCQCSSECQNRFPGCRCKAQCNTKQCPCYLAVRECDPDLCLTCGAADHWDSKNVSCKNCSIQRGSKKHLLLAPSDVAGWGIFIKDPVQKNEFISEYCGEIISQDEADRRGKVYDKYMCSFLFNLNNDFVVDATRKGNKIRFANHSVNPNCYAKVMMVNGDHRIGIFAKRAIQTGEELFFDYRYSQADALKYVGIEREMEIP
The target of series [3] is T1, MAO-A (amine oxidase [flavin-containing] A) (Homo sapiens, UniProt P21397).
T1 sequence (P21397 whole entry): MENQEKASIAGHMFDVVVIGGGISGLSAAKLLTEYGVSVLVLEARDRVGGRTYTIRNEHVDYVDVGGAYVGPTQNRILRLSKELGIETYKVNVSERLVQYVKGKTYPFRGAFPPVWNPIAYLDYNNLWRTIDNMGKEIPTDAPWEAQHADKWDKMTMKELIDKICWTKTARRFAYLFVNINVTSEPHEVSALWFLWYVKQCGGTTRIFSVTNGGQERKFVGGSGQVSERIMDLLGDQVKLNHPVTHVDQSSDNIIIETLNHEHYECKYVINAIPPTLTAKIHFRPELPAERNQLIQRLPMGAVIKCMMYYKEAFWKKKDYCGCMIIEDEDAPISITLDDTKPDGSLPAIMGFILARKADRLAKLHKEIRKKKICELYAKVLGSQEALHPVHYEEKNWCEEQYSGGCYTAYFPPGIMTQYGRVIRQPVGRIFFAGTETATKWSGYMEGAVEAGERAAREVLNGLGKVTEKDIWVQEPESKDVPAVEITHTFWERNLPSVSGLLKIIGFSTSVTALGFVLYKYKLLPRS
The series is described as follows: Inhibition of human MAO-A using p-tyramine as substrate at 100 uM by fluorimetric analysis relative to control. The settings on record: human MAO-A enzyme, probe p-tyramine.

In series [4] the target is T2, MAO-B (amine oxidase [flavin-containing] B) (Homo sapiens, UniProt P27338).
T2 sequence (P27338 whole entry): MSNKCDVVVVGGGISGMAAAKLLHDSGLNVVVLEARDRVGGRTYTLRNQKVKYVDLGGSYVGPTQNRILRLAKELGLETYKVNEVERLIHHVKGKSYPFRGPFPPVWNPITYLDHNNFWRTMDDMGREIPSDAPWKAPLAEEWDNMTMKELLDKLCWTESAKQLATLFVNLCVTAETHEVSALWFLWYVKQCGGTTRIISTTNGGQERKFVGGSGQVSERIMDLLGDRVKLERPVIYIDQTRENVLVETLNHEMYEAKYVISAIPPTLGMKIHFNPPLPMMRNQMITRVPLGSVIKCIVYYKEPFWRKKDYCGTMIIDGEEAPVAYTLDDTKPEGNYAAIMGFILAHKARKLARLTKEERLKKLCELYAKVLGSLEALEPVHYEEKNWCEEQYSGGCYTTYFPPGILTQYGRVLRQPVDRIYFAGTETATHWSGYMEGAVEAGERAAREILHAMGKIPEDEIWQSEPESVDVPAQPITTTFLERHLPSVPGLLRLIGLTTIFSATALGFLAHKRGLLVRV
Nature of the series: Inhibition of human MAO-B using p-tyramine as substrate at 100 uM by fluorimetric analysis relative to control. The note with it: human MAO-B enzyme, probe p-tyramine.

Series [5] deals with THP-1. Nature of the series: Antiproliferative activity against human THP-1 cells assessed as inhibition of cell growth incubated for 72 hrs by CellTiter-Glo luminescent cell viability assay. It counts as functional, cell-based. The settings on record: THP-1, 72 h. (In general: In ATP-based viability assays light output follows the ATP content of the culture.)
The subject of series [6] is THP-1. Nature of the series: Antiproliferative activity against human THP-1 cells assessed as inhibition of cell growth incubated for 144 hrs by CellTiter-Glo luminescent cell viability assay. It counts as functional, cell-based. The note with it: THP-1, 144 h.
Series [7] can be described thus: Cytotoxicity against human AHH-1 cells assessed as residual cell viability at 1 uM measured after 72 hrs by MTT assay relative to control. It counts as toxicity, cell-based. The settings on record: read-out: Activity. For orientation: Tetrazolium dyes change colour on reduction, which living cells bring about.
The test system of series [8] is MV4-11. Nature of the series: Antiproliferative activity against human MV4-11 cells assessed as inhibition of cell growth at 1 uM incubated for 144 hrs by trypan blue staining based analysis. It counts as functional.
Series [9] concerns the target Lysine-specific histone demethylase 1A (Homo sapiens) (UniProt O60341). Nature of the series: Inhibition of LSD1 in human MV4-11 cells assessed as increase in CD86 expression level incubated for 24 hrs by qRT-PCR analysis. It counts as cell-based. The settings on record: dose 0.2-1 µM. In general terms: Quantitative PCR measures a nucleic acid by following its amplification.

The test system of series [10] is MV4-11. Nature of the series: Induction of cell cycle arrest in human MV4-11 cells assessed as accumulation of cells at G1 phase at 0.2 to […] incubated for 24 hrs. It counts as functional, cell-based. The settings on record: dose 0.2-2.5 µM.
For series [11], the system named is MV4-11. Nature of the series: Induction of apoptosis in human MV4-11 cells assessed as accumulation of cells at sub-G1 phase incubated for 24 hrs. It counts as functional, cell-based. The settings on record: dose 0.2-25 µM, DDE = dose-dependent effect.
Another series relates to MDA-MB-231. The series is described as follows: Antiproliferative activity against human MDA-MB-231 cells assessed as inhibition of cell growth measured after 72 hrs by MTT assay. It counts as functional, cell-based. The settings on record: MDA-MB-231, 72 h.
A short description of series [12]: Cytotoxicity against HMEC cells assessed as residual cell viability at 0.5 uM incubated for 72 hrs by MTT assay relative to control. It counts as toxicity, cell-based. The settings on record: human, read-out: Activity.
In series [13] the test system is RD. The series is described as follows: Antiproliferative activity against human RD cells assessed as inhibition of cell growth incubated for 24 hrs. It counts as functional, cell-based.
In series [14] the test system is RD. Nature of the series: Antiproliferative activity against human RD cells assessed as inhibition of cell growth incubated for 144 hrs. It counts as functional, cell-based.
In series [15] the test system is SJRH30. The series is described as follows: Antiproliferative activity against human Rh30 cells assessed as inhibition of cell growth incubated for 24 hrs. It counts as functional, cell-based. The settings on record: SJRH30, 24 h.
The test system of series [16] is SJRH30. The series is described as follows: Antiproliferative activity against human Rh30 cells assessed as inhibition of cell growth incubated for 72 hrs. It counts as functional, cell-based. The settings on record: SJRH30, 72 h.
Series [17] relates to SJRH30. Nature of the series: Antiproliferative activity against human Rh30 cells assessed as inhibition of cell growth incubated for 144 hrs. It counts as functional, cell-based. The settings on record: SJRH30, 144 h.
The nature of series [18]: Cytotoxicity against human derived mesenchymal stem cells assessed as residual cell viability at 1.25 uM measured after 72 hrs relative to control. It counts as toxicity, cell-based. The settings on record: read-out: Activity.
Series [19] deals with Lysine-specific histone demethylase 1A (Homo sapiens) (UniProt O60341). The series is described as follows: Inhibition of LSD1 in human Rh30 cells assessed as increase in H3K4me2 level at 1 uM incubated for 48 hrs by Western blot analysis. It counts as cell-based.
Series [20] relates to SJRH30. The series is described as follows: Antiproliferative activity against human Rh30 cells assessed as reduction in live cells at 2 uM incubated for 24 hrs by calceinAM/propidium iodide staining based fluorescence microscopy. It counts as functional, cell-based.
In series [21] the test system is RD. Nature of the series: Induction of apoptosis in human RD cells assessed as increase in caspase 3/7 level at 2 uM incubated for 24 hrs. It counts as functional, cell-based.
Series [22] deals with SJRH30. The series is described as follows: Induction of apoptosis in human Rh30 cells assessed as increase in caspase 3/7 level at 2 uM incubated for 24 hrs. It counts as functional, cell-based.

As for `COc1cc2c(NC3CCN(Cc4ccccc4)CC3)nc(NCCCN(C)C)nc2cc1OCc1ccccc1`, the values for the inhibition in [1] and in series [2] were 22.6% and 1.8%, respectively. Moreover, the figures for the inhibition at 100 µM in series [3] and in [4] were 0.8% and 0.5%, respectively. The IC50 (as a rule, the concentration at which inhibition is half-maximal) with THP-1 [5] was 0.17 µM; with THP-1 [6] it was 0.13 µM; in the series on MDA-MB-231 it was 0.4 µM; with RD [13], 1.23 µM; in the series on RD [14], 0.73 µM; in the series on SJRH30 [15], 1.24 µM. Moreover, the IC50 worked out at 0.96 µM with SJRH30 [16] and 0.68 µM with SJRH30 [17]. Also, the viability at 72 h, 1 µM in [7] was 90%. For the same compound, the inhibition entry (in the series with MV4-11 [8]; in [9]; in [19]) was “Active” throughout. In addition, the result with MV4-11 [10], in the series on SJRH30 [20], with RD [21] and with SJRH30 [22] was Active. The Activity result in the series on MV4-11 [11] was “Dde”. Besides, in series [12], the viability at 72 h, 0.5 µM came to 93%. Also, the viability at 72 h, 1.25 µM in [18] was 92%.
